{
  "source": "paper doi:10.1101/2024.09.05.611349v1",
  "about": "(biorxiv, 2024)",
  "key": {"[1]": {"test_system": "Staphylococcus epidermidis MSSE 15-64", "assay": "microbe, parasite or virus in culture", "parameters": "species or system gram-positive clinical isolates", "conditions": "Staphylococcus epidermidis, MSSE1564, read-out: MIC(μg/ml) / 1b"}, "[2]": {"test_system": "Staphylococcus epidermidis MSSE 15-58", "assay": "microbe, parasite or virus in culture", "parameters": "species or system gram-positive clinical isolates", "conditions": "Staphylococcus epidermidis, MSSE1558, read-out: MIC(μg/ml) / 1b"}, "[3]": {"test_system": "Staphylococcus epidermidis MSSE 15-3", "assay": "microbe, parasite or virus in culture", "parameters": "species or system gram-positive clinical isolates", "conditions": "Staphylococcus epidermidis, MSSE153, read-out: MIC(μg/ml) / 1b"}, "[4]": {"test_system": "Staphylococcus epidermidis MSSE 15-61", "assay": "microbe, parasite or virus in culture", "parameters": "species or system gram-positive clinical isolates", "conditions": "Staphylococcus epidermidis, MSSE1561, read-out: MIC(μg/ml) / 1b"}, "[5]": {"test_system": "Staphylococcus epidermidis MSSE 15-1", "assay": "microbe, parasite or virus in culture", "parameters": "species or system gram-positive clinical isolates", "conditions": "Staphylococcus epidermidis, MSSE151, read-out: MIC(μg/ml) / 1b"}, "[6]": {"test_system": "Staphylococcus epidermidis MSSE 15-59", "assay": "microbe, parasite or virus in culture", "parameters": "species or system gram-positive clinical isolates", "conditions": "Staphylococcus epidermidis, MSSE1559, read-out: MIC(μg/ml) / 1b"}, "[7]": {"test_system": "Staphylococcus epidermidis MSSE 15-2", "assay": "microbe, parasite or virus in culture", "parameters": "species or system gram-positive clinical isolates", "conditions": "Staphylococcus epidermidis, MSSE152, read-out: MIC(μg/ml) / 1b"}, "in vitro": {"assay": "in vitro", "conditions": "Mouse liver microsomes"}},
  "data": [
    {"compound": "CCCCCOc1ccc(C(=O)NNC(=S)NC(C)=O)cc1", "note": "[1b, N-(2-(4-(n-pentoxy)benzoyl)hydrazine-1-carbonothioyl)acetamide]", "values": [
      {"measurement": "MIC", "setting": "[1]", "result": 8, "unit": "µg/mL"},
      {"measurement": "MIC", "setting": "[2]", "result": 1, "unit": "µg/mL"},
      {"measurement": "MIC", "setting": "[3]", "result": 1, "unit": "µg/mL"},
      {"measurement": "MIC", "setting": "[4]", "result": 1, "unit": "µg/mL"},
      {"measurement": "MIC", "setting": "[5]", "result": 1, "unit": "µg/mL"},
      {"measurement": "MIC", "setting": "[6]", "result": 1, "unit": "µg/mL"},
      {"measurement": "MIC", "setting": "[7]", "result": 1, "unit": "µg/mL"},
      {"measurement": "Mouse liver microsomes T1/2", "setting": "in vitro", "result": 28.3, "unit": "min"}
    ]}
  ]
}
